Molecules are shown by their SMILES.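 Five concentrations, 48 hours, 96-well plates. TGI is the concentration that stops growth completely.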 Bounds are passed on as bounds.

Assay in all cases: inhibition of tumour cell growth, NCI panel, 48 h
The test system of experiment [1] is 786-0 renal.
Experiment [2] has as its system A498 renal.
For experiment [3], the system named is ACHN renal.
The subject of experiment [4] is HCC-2998 colon.
Experiment [5] deals with HT29 colon.
The subject of experiment [6] is KM12 colon.
The test system of experiment [7] is MALME-3M melanoma.
For experiment [8], the system named is MCF7 breast.
Experiment [9] has as its system NCI-H226 lung.
Experiment [10] relates to NCI-H23 lung.
Experiment [11] concerns NCI/ADR-RES ovarian.
Experiment [12] deals with OVCAR-4 ovarian.
Experiment [13] deals with OVCAR-5 ovarian.
Experiment [14] concerns RPMI-8226 leukemia.
Experiment [15] has as its system SF-268 CNS.
In experiment [16] the test system is SK-MEL-28 melanoma.
For experiment [17], the system named is SW-620 colon.
Experiment [18] relates to T-47D breast.

With `N#Cc1nc(N)c(C#N)[nH]1`, the TGI in [1], in experiment [2], in [3], in [4], in experiment [5] and in experiment [6] was over 100 µM in each case. For the same compound, the TGI in [7], in experiment [8], in experiment [9], in experiment [10], in experiment [11] and in experiment [12] was over 100 µM throughout. The TGI in experiment [13], in [14], in experiment [15], in experiment [16], in experiment [17] and in [18] was over 100 µM in each case.
Turning to `O=C(CC(O)(C(F)(F)Cl)C(F)(F)Cl)CC(O)(C(F)(F)Cl)C(F)(F)Cl`, the TGI in experiment [1] is over 10 µM; in experiment [2], 7.74 µM; in experiment [3], over 10 µM; in experiment [4], over 10 µM; in experiment [5], over 10 µM; in experiment [6], over 10 µM. Besides, the TGI in experiment [7] is 4.36 µM; in experiment [8], over 10 µM; in [9], 4.66 µM; in experiment [10], 4.29 µM; in experiment [11], over 10 µM; in experiment [12], 9.67 µM. The TGI in experiment [14] was 4.84 µM; in experiment [15] it was over 10 µM; in [16], over 10 µM; in [17] it was over 10 µM; in [18], 6.6 µM.
Turning to `COc1ccc(NS(=O)(=O)c2ccc3ncn(NS(=O)(=O)c4ccc(I)cc4)c(=O)c3c2)cc1`, the TGI in experiment [1], in experiment [2], in experiment [3], in experiment [4], in experiment [5] and in experiment [6] was over 100 µM throughout. For the same compound, the TGI in experiment [7], in experiment [8], in experiment [9], in experiment [10], in [11] and in experiment [12] was over 100 µM in each case. For the same compound, the TGI in [13], in experiment [14], in [15], in experiment [16], in experiment [17] and in experiment [18] was over 100 µM throughout.
On to `CC(=O)OC12c3ccccc3C(c3ccccc31)C1C(=O)N(c3ccccc3O)C(=O)C12` (configuration not stated), for which the TGI in experiment [1], in experiment [2], in experiment [3], in experiment [4], in experiment [5] and in experiment [6] was over 100 µM each time. Further, the TGI in experiment [7], in [8], in experiment [9], in [10], in experiment [11] and in [12] was over 100 µM throughout. The TGI in experiment [13], in experiment [14], in experiment [15], in experiment [16], in experiment [17] and in [18] was over 100 µM each time.
With `CCN(CC)CCOc1ccc(N2Cc3cc(OC)c(OC)cc3C2=O)cc1`, the TGI in experiment [1], in experiment [2], in experiment [3], in [4], in [5] and in experiment [6] was over 100 µM throughout. The TGI in experiment [7], in experiment [8], in experiment [9], in experiment [10], in experiment [11] and in experiment [12] was over 100 µM each time. Moreover, the TGI in experiment [13], in [14], in experiment [15], in experiment [16], in [17] and in experiment [18] was over 100 µM throughout.
Regarding `CC1NC(=O)c2c(-c3ccccc3)nn(-c3ccccc3)c2NC1=O` (configuration not stated), the TGI in experiment [1], in experiment [2], in [3], in experiment [4], in experiment [5] and in [6] was over 100 µM in each case. Besides, the TGI in [7], in [8], in experiment [9], in [10], in [11] and in experiment [12] was over 100 µM in each case. The TGI in [13], in experiment [14], in experiment [15], in experiment [16], in [17] and in experiment [18] was over 100 µM throughout.
For `COCN1C(=O)[C@@H]2CCCN2C(=O)c2ccc(Cl)cc21`, the TGI in [1], in [2], in experiment [3], in experiment [4], in experiment [5] and in experiment [6] was over 100 µM in each case. Further, the TGI in [7], in experiment [8], in experiment [9], in [10], in experiment [11] and in experiment [12] was over 100 µM in each case. Moreover, the TGI in experiment [13], in experiment [14], in experiment [15], in [16], in [17] and in experiment [18] was over 100 µM in each case.
On to `CCOC(=O)C(=O)N=Nc1c(O)[nH]c2ccccc12`, for which the TGI in experiment [1], in experiment [2], in [3], in [4], in experiment [6] and in [7] was over 100 µM each time. Besides, the TGI in experiment [8], in [9], in experiment [10], in experiment [11], in experiment [12] and in [13] was over 100 µM throughout. For the same compound, the TGI in [14], in [15], in experiment [16], in experiment [17] and in experiment [18] was over 100 µM in each case.

The values above are taken from PubChem BioAssay (NCI).
